Source: patent publication US20100233199A1, “MODULATORS OF HYPERSENSITIVITY REACTIONS” (priority 2007, published 2010)

Columns and labels:
skin mast cells = type: in vivo, mice; details: for systemic effects of local (ear) treatment: mouse, in vivo
Experimental: Left ears were treated with DMSO and right ears with 0.2% MDD1 or 0.1% dexamethasone in DMSO twice daily for four days. Mice were then sensitised with anti DNP-20 ul IgE antibody administered to the ears by intradermal injection using an insulin syringe. Local mast cell activation was measured by dye recovery in response to FcεRI crosslink 24 hours post-injection: 100 μg DNP-albumin/1% Evans blue in PBS was injected intravenously and ear biopsies taken after 30 minutes were incubated at 80° C. in 1 ml formamide for 2 hours. The absorbance supernatant was measured at 620 nm.

RBL-2H3 cells [1] = experiment: RBL-2H3 degranulation assay (β-hexosaminidase release); type: cell-based, rat; details: for degranulation upon IgE receptor crosslinking: peptide 0.01 mM pre-treatment overnight, IgE coating + DNP/albumin crosslinking, FIG. 7
Experimental: (§1) Mast cell degranulation was measured using the β-hexosaminidase release method. RBL-2H3 cells were grown in F15 medium supplemented with 10% of fetal calf serum (FCS) and antibiotics. Cells were carefully detached from the culture flask with a cell scraper and plated at a concentration of 5×10^5 cells/well in a 96 well microtiter plate and incubated in the presence of MDD1 or SCR peptide overnight. RBL-2H3 cells were then incubated with 500 ng/ml anti-DNP IgE mb (SIGMA) for 2 hours at 37° C. After washing, cells were stimulated with 100 ng/ml DNP/albumin for 30 minutes. For non IgE specific stimulation 1 nM Ionomycin only was added to the cultures for 30 minutes. Supernatants were then collected and cell lysates were prepared using 0.1% Triton X-100. Lysate and supernatant samples (10 μl) were transferred into 96-well plates and 50 μl mM 1 mM p-nitrophenyl-N-acetyl-β-D-glucopyranoside in 50 mM citrate buffer was added to each well and incubated for 1 hour at 37° C. in the dark. The reaction was stopped by adding 100 μl 0.1M NaHCO3/0.1M Na2CO3 into each well and the absorbance measured at 405 nm. Percentage degranulation was calculated by the following formula: OD supernatant/(OD supernatant+OD lysate)×100.
as §1, with “MPX741 peptide” for “MDD1”, “MPX742” for “SCR”, “(100)” for “(10 μl)”, “μl” for “μl mM”, “formula:” for “formula: OD supernatant/(OD supernatant+OD lysate)×100.”
OD supernatant/(OD supernatant+OD lysate)×100.

[2] = Peptide solubility observation; type: physicochemical
OVA-sensitised mice [3] = experiment: OVA-induced asthma model, lung resistance after β-methacholine; type: in vivo, C57BL/6 mice; details: 6 hours prior to each OVA challenge, compared to control peptide
Experimental: (§2) C57BL/6 mice were sensitised with 10 ug ovalbumin antigen (OVA) in saline intraperitoneally seven times given on alternate days. 40 days after first sensitisation dose, mice were challenged with intranasal OVA (20 ul in each nostril of a solution of 5 mg/ml of OVA in saline). Mice received two additional challenges of intranasal OVA at days 3 and 6 after the first challenge with OVA. Control mice were sensitised with OVA, but challenged intranasally with saline. Groups of mice receiving parenteral MDD1 treatment were intravenously injected with 8 mg/Kg of MDD1 three times, 6 hours prior to each OVA challenge. Nebulised MDD1 or MDDscram (SCR) peptide was given 6 hours prior to each OVA challenge by nebulising 5 mice per cage with 8 ml of 1 mg/ml MDD1 or control peptide.
Functional lung studies and organ collection was performed one day after the final OVA challenge. Lung resistance was measured in anesthetized mice after increasing doses of β-methacholine. […] Lung resistance was measured by plethysmography, using an apparatus and software supplied by Buxco. Lung resistance values are expressed as an average of each group of mice for each methacholine dose. For each mouse, individual values were calculated by averaging collected data (every 5 seconds during 5 minutes) for each methacholine dose.

RBL-2H3 cells [4] = experiment: MDD1 uptake by RBL-2H3 cells (FACS, streptavidin-APC); type: cell-based, rat; details: biotinylated MDD1 0.001, 0.01 and 0.1 mM overnight; intracellular FACS staining with streptavidin APC; FIG. 6
Experimental: RBL-2H3 cells were grown in F15 medium supplemented with 10% of fetal calf serum (FCS) and antibiotics. Cells were carefully detached from the culture flask with a cell scraper and plated at a concentration of 5×10^5 cells/well in a 96 well microtiter plate. Cells were incubated with various concentrations of biotinylated MDD1 (0.1, 0.01 and 0.001 mM) overnight. Biotinylated MDD1 uptake by live cells was detected using streptavidin-APC in single-cell suspensions previously treated with a combined cytofix/cytopenn fixation and penneabilization solution kit following manufacture's instructions (Becton Dickinson, BD). Cells were then analysed using a BD FACscan flow cytometer.

OVA-sensitised mice [5] = experiment: OVA-induced asthma model, inflammatory response (eosinophils, BAL cells, cytokine expression, serum IgE); type: in vivo, C57BL/6 mice
Experimental: as §2
Blood smears were prepared and the percentage of eosinophils was calculated by morphological criteria after May-Grünwald Giemsa-staining. Bronchoalveolar lavage (BAL) was recovered by lavaging airways twice with 1 ml HANKS solution via the tracheal cannula while gently massaging the thorax. Lung lower left lobe was collected and homogenised. Cells were filtered through a cell strainer and cell suspensions prepared in staining medium (PBS with 1% FCS). BAL and lung samples were incubated with anti-CD11b, anti-CCR3, anti-CD4 and antiB220 mab markers for flow cytometric analysis using a FACScan equipped with CellQuest software.
Lung upper right lobe was collected and homogenised on ice. Total RNA was prepared using Trizol (GIBCO, Invitrogen). Purity of the RNA was determined by A260/A280. 5 μg RNA for each sample was reverse transcribed into cDNA using Omniscript RT kit (Qiagen). Cytokine specific predesigned TaqMan gene expression assay (Applied Biosystems) were used to measure cytokine relative gene expression following the manufacturer's instructions (Applied Biosystems). Each experimental sample was assayed in three replicates. β-actin specific primers were used as an internal standard. Negative controls with blank cDNA template were run with every assay to assess specificity. The cycling conditions were as follows: one cycle at 95° C. for 10 minutes, followed by 40 cycles of PCR amplification, each consisting of 95° C. for 15 seconds and 60° C. for 45 seconds. Sequence Detection Software (SDS v 1.2.2, Applied Biosystems) was used for analysis of the results. A threshold cycle (Ct) was determined for each sample. PCR assays showing non-specific products at the end point were excluded from further data analysis. Relative quantification using comparative Ct method was used for analysing results. The results were expressed as relative fold change over the values for non-allergic mice.
OVA-specific IgE detection: 96-well maxisorp plates were coated overnight at 4° C. with anti-mouse IgE. 2% skim milk was used for unspecific binding blockade. Prediluted serum samples were incubated overnight, plates were loaded with OVA-biotin for 1.5 hours and a colometric reaction was developed using ABTS following manufacture's instructions. For OVA-specific IgG, 96-well maxisorp microtiter plates were pretreated with 0.2% glutaraldehyde and were coated with 10 μg/ml of OVA in 10 mM carbonate buffer (pH 9.6) for 3 hours at 37° C. Wells were blocked with 2% BSA in 10 mM carbonate buffer (pH 9.6) overnight at 4° C. in a humidified chamber. Serum samples were incubated at 37° C. for 1 hour. Peroxidase-conjugated […] followed by ABTS was used to develop the colorimetric reaction. Optical density was read in a microplate reader using a 405 nm filter. Levels of IgE and IgG were expressed as OD units.

With `C[C@@H]1C[C@H]2[C@@H]3CCC4=CC(=O)C=C[C@]4(C)[C@@]3(F)[C@@H](O)C[C@]2(C)[C@@]1(O)C(=O)CO` [dexamethasone, reference compound] the “systemic effects of local (ear) treatment” value (skin mast cells) was “systemic immunosuppresion”.
In the case of “LEPPVKLKELHFSNMKTVD (listed as Homo sapiens) [MPX742]”, the “degranulation following IgE receptor crosslink” value (RBL-2H3 cells [1]; MPX741, MPX742 0.01 mM pre-treatment, IgE coating + crosslinking, FIG. 11) is reported as “significantly reduced degranulation”.
With “Ac-PQDQGWNAEITLQMVQY-NH2 [MPX743, PQDQGWNAEITLQMVQY]” the solubility [2] was “poorly soluble”.
For Ac-RALYDNVPECAEELAFRKGD-NH2 [MDD1], the “mast cell activation following IgE receptor crosslink, by dye extravasation” value (skin mast cells; 0.2% MDD1 peptide/DMSO topically to ear, twice daily for four days, compared to contralateral ears treated with DMSO only, FIG. 10) was “reduced levels of activation”, the “systemic effects of local (ear) treatment” value (skin mast cells) was “minimal systemic effects” and the “Lung resistance (RL) following increasing doses of β-methacholine” value (OVA-sensitised mice [3]; intravenously 8 mg/kg, FIG. 8A) was “reduced”. For the same molecule, the “Lung resistance (RL) following increasing doses of β-methacholine” value (OVA-sensitised mice [3]; nebulised intranasal route 1 mg/ml, FIG. 8B) was “reduced”, the “MDD1 peptide uptake by live cells” value (RBL-2H3 cells [4]) was “All cells were positive for MDD1 peptide and the levels were observed to increase with peptide concentration” and the “overall inflammatory response in the asthmatic reaction” value (OVA-sensitised mice [5]; OVA-sensitized mice, FIG. 9) was “reduced”. The eosinophilia in blood (OVA-sensitised mice [5]; allergic mice compared to control treated mice, FIG. 9A) was “decreased”, the “cellularity in broncho-alveolar lavages” value (OVA-sensitised mice [5]; allergic mice compared to control treated mice, FIG. 9B) was “decreased” and the “cytokine production in inflammatory foci (TNF expression)” value (OVA-sensitised mice [5]; allergic mice compared to control treated mice, FIG. 9C) was “decreased”. The “levels of antigen-specific IgE in serum” value (OVA-sensitised mice [5]; allergic mice compared to control treated mice, FIG. 9D) was “decreased”, the “comparison with dexamethasone treatment in the inflammatory parameters tested” value (OVA-sensitised mice [5]; dexamethasone 2 mg/kg i.p., some of the parameters, FIG. 9) was “outperformed dexamethasone treatment” and the “mast cell activation after non-specific stimulation” value (RBL-2H3 cells [1]; non IgE specific stimulation (ionomycin), data not shown) was “inhibit mast cell activation”. The “degranulation upon IgE receptor crosslinking” value (RBL-2H3 cells [1]) was “inhibit degranulation”.
In the case of “EALPGEDCAFRKDANRLVEY (listed as Homo sapiens) [MDD1scram, control peptide, reference compound]”, the “degranulation upon IgE receptor crosslinking” value (RBL-2H3 cells [1]) is reported as “only a minor inhibitory effect”.
